Literature values in patent publication US8394287B2, “Non-aqueous heat transfer fluid and use thereof” (priority 2001, dated 2013).

Test system: human
Conditions: Federal Register Vol. 63, No. 27, Feb. 10, 1998

SMILES: OCCO [EG, ethylene glycol]
- lethal dose for a human: approximately 1,570 mg/kg body mass
